This is an account of results in patent publication US7037663B2, “Human zona pellucida protein 3 and uses thereof” (Eastern Virginia Medical School, priority 1998, dated 2006).

The subject of one series is Gi proteins. Briefly: Pertussis toxin pre-incubation before rhZP3-induced acrosome reaction. The format is cell-based, human. How it is done:
Experiment 3: Acrosome reaction-inducing activity of rhZP3: effect on Gi proteins—Motile sperm fractions were obtained from the ejaculates of three donors and incubated under capacitating conditions. In each experiment, the test aliquot was pre-incubated with pertussis toxin (100 ng/ml final concentration) for 4 hours followed by incubation with rhZP3 (500 ng/ml). A control aliquot was incubated in culture medium alone for 4 hours and then treated with rhZP3 at the same dose. After 30 min exposure to rhZP3 or control conditions, sperm were assayed for acrosome reaction using FITC-PSA.

In the next series the test system is sperm. Briefly: Sperm motion parameters by computer analyzer. Particulars: data not shown.
In series [1] the test system is human sperm. Briefly: Acrosome reaction of capacitated sperm by FITC/PSA with Hoechst 33258 viability stain, first series. The format is cell-based. Particulars: NT 30 ng/ml, calcium ionophore 5 μM, rhZP3 30 ng/ml, solubilized zona 0.5 ZP/μl, mean (± SEM). How it is done: The purified rhZP3 was also applied to test its activity to induce human sperm acrosome reaction. The motile sperm obtained by swim-up procedure were allowed to capacitate in HTF/0.5% HSA for four hours at 37° C. in 5% CO2 in huminified air. The motile sperm concentration used to detect acrosome reaction was set at 2 million/ml. A series of 100 ul of capacitated sperm aliquots with different inducers were prepared in Eppendorf vials and cultured in the incubator in 95% air, 5% CO2, at 37° C. for 30 minutes. The test was conducted as follows: positive control: calcium ionophore A23187 (Sigma) at 5 μM; negative controls: 1) sperm culture medium alone, and 2) protein isolated from the culture media of non-transfected PA-1 cells (NT); test: rhZP3. Triple slides were made for each assay. Hoechst 33258 stain was used for determination of sperm viability. Fluorescein isothiocyanate conjugated Pisum sativum agglutinin (FITC/PSA) (Sigma) staining technique was employed to evaluate the acrosome reaction (Cross et al, 1986). Blind reading was required for evaluation and at least 100˜200 cells from 5 random fields were evaluated per spot on the slide. […] The results were expressed as percentage of acrosome-reacted spermatozoa in the total population counted (Cross, 1986).
In some experiments, Solubilized zona pellucida were used as control to test its function to induce sperm acrosome reaction. The solubilized zona pellucida were prepared according to Franken et al (1996). Ooplasma was removed using a small glass micropipette. A vigorous pipetting action would break their zona causing ooplasma to be spilled into surrounding medium. The chosen amount of zonae was transferred into an eppendorf tube and was centrifuged for 15 minutes at 300×g. Using a steromicroscope, the media were removed with pipette, making sure not to disturb zona. The final result was to remove maximum medium. A chosen volume (depending on the zona concentration needed) of 10 mM HCl was added. Under the microscopic vision, zona/HCl was pipetted up and down until all zona were dissolved. Then 10 mM NaOH of equal volume as the HCl was added and mixed well to obtain the stock zona solution.

Series [2] deals with human sperm. Briefly: Acrosome reaction of live sperm by FITC-PSA, second series. The series is classed as cell-based. The note with it: A23187 5 μM. How it is done: Determination of the acrosome reaction—The proportion of live acrosome-reacted spermatozoa incubated under capacitating conditions was determined with the fluorescent probe fluorescein isothiocyanate-labeled Pisum Sativum Agglutinin (FITC-PSA, Sigma) after staining with a supravital stain (Hoechst 33258, Sigma) following established techniques (12,13). At least 200 sperm per sample were evaluated in duplicate at 600× magnification using an epifluorescence microscope equipped with phase-contrast optics (Optiphot; Nikon, Melville, N.Y.). Slides were coded and read in a blind fashion.
A calcium ionophore agent (A23187, Sigma) tested at 5 μM and human acid solubilized zona pellucida tested at a final concentration of 4 zona/10 μl were used as positive controls (20). In further experiments, the acrosomal status was assessed by transmission electron microscopy. Spermatozoa were fixed by mixing sperm suspensions with equal volumes of 2% (v/v) glutaraldehyde (in 3 mM CaCl2 and 0.1 M sodium cacodylate); thereafter, samples were dehydrated twice and prepared for thin sectioning using previously published procedures. Ultrastructural examination was performed with a transmission electron microscope (Jeol JEM-1200 EX II, Peabody, Mass.).
Experiment 2: Characterization of the acrosome reaction inducing activity of the rhZP3 in dose- and sperm capacitation-dependency studies—Motile sperm fractions from 29 ejaculates of 11 different donors were incubated under capacitating conditions for 3 hours and assayed for acrosome reaction using FITC-PSA. Following swim-up, sperm aliquots were pre-incubated for 30 minutes with rhZP3 (30 ng/ml), A23187 (positive control), culture medium from non-transfected PA-cells (NT) or sperm culture medium (negative controls). This was the initially selected dose of rhZP3 to be tested as it had proven to effect significant inhibition of sperm-zona binding in the HZA.
The dose-dependent effect of rhZP3 on acrosome reaction was examined in the swim-up fractions obtained from four different donors. The fractions were capacitated for 3 hours and exposed for 30 min to rhZP3 at final concentrations of 0, 7.5, 15, 30, 60, 120, 240, 480, 960 and 1920 ng/ml. The capacitation-dependency of the acrosome reaction-inducing activity of rhZP3 was assessed in the swim-up fractions of four ejaculates from four different donors. Capacitation times included: 0 (immediately post-swim-up), 1, 4, 8, 12 and 24 hours. After the capacitation period, rhZP3 was added to the sperm suspension at a final concentration of 30 ng/ml.
In another set of experiments, three different ejaculates were used to compare the effects of the rhZP3 (tested at 500 ng/ml) with those of solubilized zonae pellucidae and the calcium ionophore. Further, the induction of the acrosome reaction was assessed in parallel with FITC-PSA and transmission electron microscopy. The goal of these studies was to compare the morphological features of the acrosome reaction between agonists and also between the agonist-induced and basal exocytosis rates.

Turning to pertussis toxin, the “effect on basal rate of spontaneous acrosomal exocytosis” value in the series on Gi proteins (pertussis toxin 100 ng/ml) is recorded as “did not modify the basal rate of spontaneous acrosomal exocytosis”. In addition, the “effect on induction of the acrosome reaction by rhZP3” value with Gi proteins (pertussis toxin 100 ng/ml 4 h, then rhZP3 500 ng/ml 30 min) is listed as “inhibited the induction of the acrosome reaction by rhZP3”. In addition, the “sperm motion parameters, treatment versus control” value in the series on sperm is given as “not significantly different”.
Regarding `CNc1ccc2oc(C[C@H]3O[C@@]4(CC[C@H]3C)O[C@H]([C@H](C)C(=O)c3ccc[nH]3)[C@H](C)C[C@H]4C)nc2c1C(=O)O` [Calcium ionophore, A23187, reference compound], the “% acrosome reacted-sperm” value with human sperm [1] (4 h capacitation, 30 min) was 22.5%. Moreover, the “% sperm viability” value with human sperm [1] is given as 96.5 (2.0) %. Besides, the “live, acrosome reacted sperm” value in the series with human sperm [2] (rhZP3 30 ng/ml, 3 h capacitation, 30 min exposure) is 19.4±4.1%. Further, the “induction of the acrosome reaction” value with human sperm [2] (rhZP3 500 ng/ml, solubilized zona 4 zona/10 μl) is listed as 34.7±5.2%. In addition, the “sperm motion parameters, treatment versus control” value in the series on sperm is recorded as “not significantly different”.
